From US12414978B2, “Tyrosine inhibitors with immunosuppressive activity in human neonatal keratinocyte progenitors” (ESCAPE THERAPEUTICS, INC., priority 2019, dated 2025)
Square brackets hold non-standard residues; d marks the D form. Ends that are not written are not given here. Peptide text beside a SMILES is read from it. * marks the point of attachment. Palmitoyl = CCCCCCCCCCCCCCCC(=O)*

Tests used:
PHA-stimulated PBMC [1] = assay: PHA-stimulated PBMC proliferation; assay type: cell-based, human; conditions: PHA 72 hours
Description: (§1) Cryopreserved human PBMCs were purchased from Astarte Biologics (Redmond, Washington, USA), activated with phytohemagglutinin (PHA), and proliferation assessed. Interleukin (IL)-2 activated human NK cell cytotoxic killing of human K562 cells was assessed using a CytoTox96 non-radioactive cytotoxicity assay kit (Promega). Protease inhibitor was added to the media to prevent degradation of decapeptide-12.
(§2) Three independent trials were performed for each experiment. Microsoft Excel (Seattle, Washington) was used to calculate means and standard errors and statistical significance was determined using unpaired analysis of variance or two-tailed student T-test. P values <0.05 were taken to be statistically significant.
The effects of decapeptide-12 and oxyresveratrol on PBMC proliferation rates after exposure to PHA for 72 hours, were explored.

[2] = test system: human epidermal progenitors; assay: MTT cell proliferation, epidermal progenitors; assay type: cell-based
Description: Proliferation rates were determined using a TACS® MTT Cell Proliferation Kit (R&D systems, Minneapolis, MN). Cells were seeded at 2.5×10^4 per well in 96-well plates in a humidified atmosphere with 5 percent CO2 at 37 degrees Celsius. Twenty-four hours later, decapeptide-12 or oxyresveratrol were added to the corresponding wells at varying concentrations (0, 3, 10, 30, 100, 300, and 1000 micromolar), and cultures were then incubated for 72 hours. The remainder of the procedure was performed following the manufacturer's protocol.
(§3) Proliferation rates for three human cell lines (epidermal progenitors, melanoblasts, and fibroblasts) were determined using a TACS® MTT Cell Proliferation Kit. Cells were seeded at 2.5×10^4 per well in 96-well plates in a humidified atmosphere with 5 percent CO2 at 37 degrees Celsius. Twenty-four hours later, the decapeptides were added to the corresponding wells at varying concentrations and incubated for 72 hours. The remainder of the procedure was performed following the manufacturer's protocol.

[3] = test system: IL-2 activated human NK cell cytotoxic killing of human K562 cells; assay: NK cytotoxic killing of K562 cells (CytoTox96); assay type: cell-based
Description: as §1, §2
The impact of decapeptide-12 on IL-2 primed NK-mediated cytotoxic killing of K562 cells, was also assessed.

melanoblasts [4] = assay: Trypan blue cell viability after 7 days, melanoblasts; assay type: cell-based, human; conditions: relative to control (untreated cells)
Description: (§4) The effect of each of the decapeptides upon cell viability was also tested. In particular, cells were incubated with the decapeptide at various concentrations and then counted for viability relative to the control (untreated cells) using trypan blue. Cytotoxicity was measured according to the following formula: [1−(# of cells in control−# of live cells in test sample)/# of cells in control]×100 percent.

fibroblasts [5] = assay: MTT cell proliferation, fibroblasts; assay type: cell-based, human
Description: as §3

epidermal progenitors = assay: Trypan blue cell viability after 7 days, epidermal progenitors; assay type: cell-based, human; conditions: relative to control (untreated cells)
Description: as §4

fibroblasts [6] = assay: Trypan blue cell viability after 7 days, fibroblasts; assay type: cell-based, human; conditions: 50 μM, relative to control (untreated cells)
Description: as §4

melanoblasts [7] = assay: MTT cell proliferation, melanoblasts; assay type: cell-based, human
Description: as §3

PHA-stimulated PBMC [8] = conditions: 0.1 millimolar; cited from earlier work

| Compound | melanoblast viability after 7 days (melanoblasts [4]; 10 μM) [%] | fibroblast proliferation rate after 72 hours (fibroblasts [5]; 3 μM) [%] | fibroblast proliferation rate after 72 hours (fibroblasts [5]; 10 μM) [%] | fibroblast proliferation rate after 72 hours (fibroblasts [5]; 30 μM) [%] | fibroblast proliferation rate after 72 hours (fibroblasts [5]; 50 μM) [%] | fibroblast proliferation rate after 72 hours (fibroblasts [5]; 100 μM) [%] | fibroblast proliferation rate after 72 hours (fibroblasts [5]; 300 μM) [%] | fibroblast proliferation rate after 72 hours (fibroblasts [5]; 500 μM) [%] | fibroblast proliferation rate after 72 hours (fibroblasts [5]; 1000 μM) [%] | epidermal progenitor viability after 7 days (epidermal progenitors; 10 μM) [%] | epidermal progenitor proliferation rate after 72 hours ([2]; 3 μM) [%] | epidermal progenitor proliferation rate after 72 hours ([2]; 10 μM) [%] | epidermal progenitor proliferation rate after 72 hours ([2]; 30 μM) [%] | epidermal progenitor proliferation rate after 72 hours ([2]; 50 μM) [%] | epidermal progenitor proliferation rate after 72 hours ([2]; 100 μM) [%] | epidermal progenitor proliferation rate after 72 hours ([2]; 300 μM) [%] | epidermal progenitor proliferation rate after 72 hours ([2]; 500 μM) [%] | epidermal progenitor proliferation rate after 72 hours ([2]; 1000 μM) [%] | melanoblast proliferation rate after 72 hours (melanoblasts [7]; 3 μM) [%] | melanoblast proliferation rate after 72 hours (melanoblasts [7]; 10 μM) [%] | further results |
| --- | --- | --- | --- | --- | --- | --- | --- | --- | --- | --- | --- | --- | --- | --- | --- | --- | --- | --- | --- | --- | --- |
| Oc1cc(O)cc(/C=C/c2ccc(O)cc2O)c1 [oxyresveratrol] | – | – | – | – | – | – | – | – | – | – | – | – | – | – | – | – | – | – | – | – | reduction of PHA-stimulated PBMC proliferation (PHA-stimulated PBMC [1]; 0.1 millimolar): 35.3±1.8%; reduction of PHA-stimulated PBMC proliferation (PHA-stimulated PBMC [1]; 0.3 millimolar): progressively less inhibition; reduction of PHA-stimulated PBMC proliferation (PHA-stimulated PBMC [1]; 1 millimolar): progressively less inhibition; reduction of PHA-stimulated PBMC proliferation (PHA-stimulated PBMC [1]; 3 millimolar): 14.7±3.4%; reduction in proliferation ([2]; 1 millimolar (1000 micromolar), 72 hours, epidermal progenitors): 12±2%; reduction of NK killing of K562 cells ([3]; 0.1 millimolar, E:T ratio 10:1): 88.7±1.8%; reduction of NK killing of K562 cells ([3]; 0.1 millimolar, E:T ratio 30:1): 72.8±1.9%; reduction of NK killing of K562 cells ([3]; 0.3 millimolar, E:T ratio 10:1): 86.1±0.9%; reduction of NK killing of K562 cells ([3]; 0.3 millimolar, E:T ratio 30:1): 64.0±3.4% |
| CCCCCCCCCCCCCCCC(=O)N[C@@H](Cc1ccc(O)cc1)C(=O)N[C@@H](CCCNC(=N)N)C(=O)N[C@@H](CO)C(=O)N[C@@H](CCCNC(=N)N)C(=O)N[C@@H](CCCCN)C(=O)N[C@@H](Cc1ccc(O)cc1)C(=O)N[C@@H](CO)C(=O)N[C@@H](CO)C(=O)N[C@@H](Cc1c[nH]c2ccccc12)C(=O)N[C@@H](Cc1ccc(O)cc1)C(N)=O [P4A, Palmitoyl-YRSRKYSSWY-amide] (Palmitoyl-YRSRKYSSWY-NH2) | 99 ± 1 | 100 | 99 ± 1 | 98 ± 1 | 98 ± 1 | 97 ± 2 | 97 ± 2 | 96 ± 2 | 95 ± 2 | 99 ± 1 | 99 ± 1 | 99 ± 1 | 98 ± 1 | 97 ± 1 | 97 ± 2 | 96 ± 2 | 96 ± 2 | 94 ± 2 | 100 | 100 | melanoblast viability after 7 days (melanoblasts [4]; 50 μM): 98 ± 1%; melanoblast viability after 7 days (melanoblasts [4]; 100 μM): 97 ± 2%; fibroblast viability after 7 days (fibroblasts [6]): 98 ± 1%; melanoblast proliferation rate after 72 hours (melanoblasts [7]; 30 μM): 99 ± 1%; melanoblast proliferation rate after 72 hours (melanoblasts [7]; 50 μM): 98 ± 1%; melanoblast proliferation rate after 72 hours (melanoblasts [7]; 100 μM): 97 ± 2%; melanoblast proliferation rate after 72 hours (melanoblasts [7]; 300 μM): 97 ± 2%; melanoblast proliferation rate after 72 hours (melanoblasts [7]; 500 μM): 96 ± 2%; melanoblast proliferation rate after 72 hours (melanoblasts [7]; 1000 μM): 95 ± 2% |
| Oc1ccc(C=Cc2cc(O)cc(O)c2)cc1 [resveratrol] | – | – | – | – | – | – | – | – | – | – | – | – | – | – | – | – | – | – | – | – | inhibition of PHA-induced proliferation (PHA-stimulated PBMC [8]): inhibits |
| Ac-YRSRKYSSWY-NH2 [P4C, Acetyl-YRSRKYSSWY-amide] | 99 ± 1 | 100 | 99 ± 1 | 99 ± 1 | 99 ± 1 | 98 ± 2 | 97 ± 2 | 96 ± 2 | 96 ± 2 | 99 ± 1 | 99 ± 1 | 99 ± 1 | 98 ± 1 | 98 ± 1 | 97 ± 1 | 97 ± 1 | 96 ± 2 | 96 ± 2 | 100 | 100 | melanoblast viability after 7 days (melanoblasts [4]; 100 μM): 97 ± 2%; melanoblast viability after 7 days (melanoblasts [4]; 300 μM): 96 ± 3%; epidermal progenitor viability after 7 days (epidermal progenitors; 30 μM): 98 ± 1%; epidermal progenitor viability after 7 days (epidermal progenitors; 1000 μM): 94 ± 3%; melanoblast proliferation rate after 72 hours (melanoblasts [7]; 30 μM): 99 ± 1%; melanoblast proliferation rate after 72 hours (melanoblasts [7]; 50 μM): 98 ± 1%; melanoblast proliferation rate after 72 hours (melanoblasts [7]; 100 μM): 97 ± 2%; melanoblast proliferation rate after 72 hours (melanoblasts [7]; 300 μM): 96 ± 3%; melanoblast proliferation rate after 72 hours (melanoblasts [7]; 500 μM): 95 ± 2%; melanoblast proliferation rate after 72 hours (melanoblasts [7]; 1000 μM): 95 ± 2% |
| YRSRKYSSWY [P4, YRSRKYSSWY] | 99 ± 1 | – | – | – | – | – | – | – | – | 99 ± 1 | – | – | – | – | – | – | – | – | – | – | melanoblast viability after 7 days (melanoblasts [4]; 50 μM): 98 ± 1%; melanoblast viability after 7 days (melanoblasts [4]; 1000 μM): 94 ± 2% |
| CCCCCCCCCCCCCCCC(=O)N[C@@H](Cc1ccc(O)cc1)C(=O)N[C@@H](CCCNC(=N)N)C(=O)N[C@@H](CO)C(=O)N[C@@H](CCCNC(=N)N)C(=O)N[C@@H](CCCCN)C(=O)N[C@H](Cc1ccc(O)cc1)C(=O)N[C@@H](CO)C(=O)N[C@@H](CO)C(=O)N[C@@H](Cc1c[nH]c2ccccc12)C(=O)N[C@@H](Cc1ccc(O)cc1)C(N)=O [P4B, Palmitoyl-YRSRK[*Y]SSWY-amide] (Palmitoyl-YRSRK[dY]SSWY-NH2) | – | 100 | 99 ± 1 | 99 ± 1 | 99 ± 1 | 98 ± 2 | 97 ± 2 | 96 ± 2 | 96 ± 2 | 99 ± 1 | 99 ± 1 | 99 ± 1 | 98 ± 1 | 98 ± 1 | 97 ± 1 | 97 ± 1 | 95 ± 2 | 94 ± 2 | 100 | 100 | epidermal progenitor viability after 7 days (epidermal progenitors; 50 μM): 98 ± 1%; epidermal progenitor viability after 7 days (epidermal progenitors; 100 μM): 97 ± 1%; melanoblast proliferation rate after 72 hours (melanoblasts [7]; 30 μM): 99 ± 1%; melanoblast proliferation rate after 72 hours (melanoblasts [7]; 50 μM): 98 ± 1%; melanoblast proliferation rate after 72 hours (melanoblasts [7]; 100 μM): 97 ± 2%; melanoblast proliferation rate after 72 hours (melanoblasts [7]; 300 μM): 96 ± 2%; melanoblast proliferation rate after 72 hours (melanoblasts [7]; 500 μM): 95 ± 2%; melanoblast proliferation rate after 72 hours (melanoblasts [7]; 1000 μM): 94 ± 2% |
